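48-hour exposure; five concentrations; linearly interpolated endpoints. GI50 is the concentration that inhibits growth by half.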 The source made the active and inactive calls. Rule as the data show it: active = GI50 up to about 1.1 µM and inactive = higher.
What was measured:
Assay in all cases: inhibition of tumour cell growth, NCI panel, 48 h
A549 = system: A549
XF498 = system: XF498
OVCAR-8 = system: OVCAR-8
SN12C = system: SN12C
NCI-H522 = system: NCI-H522
M14 = system: M14
LXFL 529 = system: LXFL 529
SK-MEL-5 = system: SK-MEL-5
SNB-19 = system: SNB-19
TK-10 = system: TK-10
CCRF-CEM = system: CCRF-CEM
786-0 = system: 786-0
UACC-257 = system: UACC-257
KM-20L2 = system: KM-20L2
DMS-273 = system: DMS-273
HT-29 = system: HT-29
OVCAR-5 = system: OVCAR-5
HCC 2998 = system: HCC 2998
HOP-62 = system: HOP-62
COLO 205 = system: COLO 205
SF-539 = system: SF-539
HL-60 = system: HL-60
SNB-75 = system: SNB-75
RXF 631 = system: RXF 631
K562 = system: K562
LOX IMVI = system: LOX IMVI
HOP-92 = system: HOP-92
ACHN = system: ACHN
UACC-62 = system: UACC-62
U-251 = system: U-251
DMS-114 = system: DMS-114
SK-OV-3 = system: SK-OV-3
RPMI-8226 = system: RPMI-8226
SNB-78 = system: SNB-78
NCI-H460 = system: NCI-H460
SK-MEL-28 = system: SK-MEL-28
M19-MEL = system: M19-MEL
SW-620 = system: SW-620
NCI-H23 = system: NCI-H23
OVCAR-3 = system: OVCAR-3
Malme-3M = system: Malme-3M
EKVX = system: EKVX
SF-268 = system: SF-268
RXF 393 = system: RXF 393
SK-MEL-2 = system: SK-MEL-2
UO-31 = system: UO-31
KM12 = system: KM12
CAKI-1 = system: CAKI-1
MOLT-4 = system: MOLT-4
DLD-1 = system: DLD-1
SF-295 = system: SF-295
OVCAR-4 = system: OVCAR-4
A498 = system: A498
IGROV-1 = system: IGROV-1
HCT-116 = system: HCT-116
HOP-18 = system: HOP-18
SR = system: SR
NCI-H226 = system: NCI-H226
HCT-15 = system: HCT-15

Measured: GI50

COc1ccc(C(=O)O[C@H]2[C@@H]3C=CO[C@@H](OC4OC(CO)C(O)C(O)C4O)[C@@H]3[C@@]3(CO)O[C@@H]23)cc1O (stereo partly drawn)
inactive: A549 > 100 µM | XF498 > 100 µM | OVCAR-8 > 100 µM | SN12C > 100 µM | NCI-H522 > 100 µM | M14 > 100 µM | LXFL 529 > 100 µM | SK-MEL-5 > 100 µM | SNB-19 > 100 µM | TK-10 > 100 µM | CCRF-CEM > 100 µM | 786-0 > 100 µM | UACC-257 > 100 µM | KM-20L2 > 100 µM | DMS-273 > 100 µM | HT-29 > 100 µM | OVCAR-5 > 100 µM | HCC 2998 > 100 µM | HOP-62 > 100 µM | COLO 205 > 100 µM | SF-539 > 100 µM | HL-60 > 100 µM | SNB-75 > 100 µM | RXF 631 > 100 µM | K562 > 100 µM | LOX IMVI > 100 µM | HOP-92 > 100 µM | ACHN > 100 µM | UACC-62 > 100 µM | U-251 > 100 µM | DMS-114 > 100 µM | SK-OV-3 > 100 µM | RPMI-8226 > 100 µM | SNB-78 > 100 µM | NCI-H460 > 100 µM | SK-MEL-28 > 100 µM | M19-MEL > 100 µM | SW-620 > 100 µM | NCI-H23 > 100 µM | OVCAR-3 > 100 µM | Malme-3M > 100 µM | EKVX > 100 µM | SF-268 > 100 µM | RXF 393 > 100 µM | SK-MEL-2 > 100 µM | UO-31 > 100 µM | KM12 > 100 µM | CAKI-1 > 100 µM | MOLT-4 > 100 µM | DLD-1 > 100 µM | SF-295 > 100 µM | OVCAR-4 > 100 µM | A498 > 100 µM | IGROV-1 > 100 µM

C=CCC1C(=O)CC2(C)C(CC=C)C(=O)CC12C (stereo not drawn)
inactive: A549 > 100 µM | XF498 > 100 µM | OVCAR-8 > 100 µM | SN12C > 100 µM | NCI-H522 > 100 µM | M14 > 100 µM | LXFL 529 > 100 µM | SK-MEL-5 > 100 µM | SNB-19 > 100 µM | TK-10 > 100 µM | CCRF-CEM > 100 µM | HCT-116 > 100 µM | 786-0 > 100 µM | UACC-257 > 100 µM | KM-20L2 > 100 µM | DMS-273 > 100 µM | HT-29 > 100 µM | OVCAR-5 > 100 µM | HCC 2998 > 100 µM | HOP-62 > 100 µM | COLO 205 > 100 µM | SF-539 > 100 µM | HL-60 > 100 µM | SNB-75 > 100 µM | RXF 631 > 100 µM | K562 > 100 µM | LOX IMVI > 100 µM | HOP-18 > 100 µM | HOP-92 > 100 µM | ACHN > 100 µM | UACC-62 > 100 µM | U-251 > 100 µM | SK-OV-3 > 100 µM | RPMI-8226 > 100 µM | NCI-H460 > 100 µM | SR > 100 µM | SK-MEL-28 > 100 µM | M19-MEL > 100 µM | SW-620 > 100 µM | NCI-H23 > 100 µM | NCI-H226 > 100 µM | OVCAR-3 > 100 µM | Malme-3M > 100 µM | EKVX > 100 µM | SK-MEL-2 > 100 µM | UO-31 > 100 µM | KM12 > 100 µM | CAKI-1 > 100 µM | MOLT-4 > 100 µM | DLD-1 > 100 µM | SF-295 > 100 µM | OVCAR-4 > 100 µM | IGROV-1 > 100 µM
> 100 µM: HCT-15

CCN1C(C)=NC2C(=O)c3ccccc3C(=O)C21 (stereo not drawn)
57.4 µM: HCT-15
inactive: A549 41.6 µM | XF498 42.5 µM | OVCAR-8 74.1 µM | SN12C 40.8 µM | M14 66.5 µM | LXFL 529 94.4 µM | SK-MEL-5 24.1 µM | SNB-19 81.7 µM | TK-10 > 100 µM | CCRF-CEM 47 µM | HCT-116 36.2 µM | 786-0 65.5 µM | UACC-257 31.2 µM | KM-20L2 27.2 µM | DMS-273 48.6 µM | HT-29 28.8 µM | HCC 2998 27.4 µM | HOP-62 37.4 µM | COLO 205 33.5 µM | SF-539 40.3 µM | HL-60 37.8 µM | SNB-75 37.8 µM | RXF 631 > 100 µM | K562 78.9 µM | LOX IMVI 46.9 µM | ACHN 74.8 µM | UACC-62 43 µM | U-251 > 100 µM | DMS-114 32.2 µM | RPMI-8226 55.7 µM | NCI-H460 30.1 µM | SR 52.5 µM | SK-MEL-28 > 100 µM | M19-MEL 34.8 µM | SW-620 32.6 µM | NCI-H23 50.7 µM | NCI-H226 63 µM | OVCAR-3 27.4 µM | Malme-3M 40 µM | EKVX > 10 µM | SF-268 57.7 µM | RXF 393 > 100 µM | SK-MEL-2 > 100 µM | UO-31 > 100 µM | MOLT-4 43 µM | SF-295 82.2 µM | OVCAR-4 21 µM | A498 > 100 µM | IGROV-1 38.1 µM
